Measured values published in patent US6818782B2, “Enantiomeric compounds for treatment of cardiac arrhythmias and methods of use” (ARYX Therapeutics, priority 1999, dated 2004).

How the values were obtained:
[1] = system: rats challenged by an arrhythmogenic combination of benzene vapors and adrenaline; assay: Anti-arrhythmic activity in anesthetized rats (benzene/adrenaline challenge: VPB and tachycardia); assay type: in vivo, rat; settings: for Protection against adrenaline-induced tachycardia (heart rate), potency and duration: administered from time 0 to time 120 minutes; for Heart rate (beats/minute) / Inhibition of tachycardia / Number of VPB / Inhibition of VPB: isolated enantiomer compared to respective racemate; for Inhibition of VPB: 4 mg/kg i.v. then 12 mg/kg/h for 2 hours; for Anti-VPB activity at the end of the washout period: time 180 min; for Inhibition of formation of ventricular premature beats during drug administration: whole period of drug administration (time 0 to 120 min), 4 mg/kg i.v. then 12 mg/kg/h
Protocol: (§1) Anti-Arrhythmic Activity in Anesthetized Rats
(§2) Male Sprague-Dawley rats with body weights of 410±30 g (Harlan Sprague Dawley Inc., Indianapolis, Ind.), were anesthetized with sodium pentobarbital (50 mg/kg i.p.—Butler Co., Columbus, Ohio). The skin from the neck area was removed and the jugular veins on both sides were cleared of connective tissue. Both jugular veins and the left carotid artery were isolated, and the latter tied up cranially with a surgical silk (ETHICON 4-0, Ethicon Inc., Australia). A plastic catheter ([…] 19ga, Vecton Dickinson, Sandy, Utah), filled with a solution containing 10% sodium heparin (Elkins-Sinn Inc., Cherry Hill, N.J.) in normal saline (100 U/ml sodium heparin), was introduced into the artery and fixed with surgical silk.
(§3) The catheter was connected to a pressure transducer (OHMEDA P23-XL, Ohmeda Medical Devices Division Inc., Madison, Wis.), filled with the same heparinized 0.9% NaCl solution, to register beat-to-beat arterial pressure. Needle electrodes were inserted s.c., and together with the pressure transducer, were joined to a GOULD TA 2000 recorder. Leads II, aVF and intraarterial blood pressure were monitored simultaneously throughout the experiments and recorded at certain intervals at 50 and 200 mm/sec paper speed.
(§4) The surgery was completed with an incision on the trachea where a short plastic tubing was placed and the animal was connected to a rodent-model ventilator (HARVARD Model 683, Harvard Apparatus, Inc., Holliston, Mass.). The animals were ventilated in a controlled way, depending on their spontaneous breathing frequency (55-75/min).
(§5) Drug administrations were carried out through i.v. catheters (TERUMO 24 GA*¾″, Terumo Medical Corp., Elkton, Md.) inserted into both jugular veins. The left side was used for drug infusions by means of a syringe pump (SAGE INSTRUMENTS, Model 341B, Orion Res. Inc., Boston, Mass.), and the right side was used for adrenaline injections. The experiments were started after at least 15 minutes of stabilization. Benzene/adrenaline challenges were performed as follows: the respirator inlet was connected to a 50-ml bubbler half-full with benzene (Fisher Scientific, Fair Lawn, N.J.) so that the inspired air was saturated with benzene vapor. The animal was ventilated with benzene vapor for two minutes. The tidal volume was typically 1 ml/100 g of animal. During the last 30 seconds of benzene ventilation, 10 μg/kg adrenaline solution (in 0.9% NaCl) was injected into the right jugular vein. […] These arrhythmias could be elicited repeatedly. After three control VTs (at −30, −20 and −10 minutes), the test compounds were injected slowly during 30 seconds at a dose of 4 mg/kg i.v., immediately followed by a slow infusion of 12 mg/kg/h for 2 hours. The flow rate during the infusion period was 1 ml/h.
(§6) There were 5 rats per test compound and each animal served as its own control. The ability of the different drugs to suppress arrhythmias was tested against repeated benzene/adrenaline challenges at 5, 15, 30, 45, 60, 90, 120 (end of drug infusion), 135, 150, 165 and 180 minutes after the i.v. bolus injection. The amplitudes of the systolic arterial pressure and diastolic arterial pressure […] with the help of a pressure-amplitude calibration curve. Heart rate, number of ventricular complexes during the occurrence of VTs and VPBs, and certain ECG parameters (PR, QRS, QT durations and RR cycle lengths in msec) were also recorded and measured manually. At each time-point, 3-5 cycles were measured and the average values were entered into EXCEL Windows 97. The average and standard deviation for the five experimental animals per compound were calculated.

[2] = system: anesthetized rats; assay: EKG parameters (QT, QRS, PR) in anesthetized rats; assay type: in vivo, rat; settings: for PR interval / QRS interval / QT interval: isolated enantiomer compared to respective racemate
Protocol: as §1, §2, §3, §4, §5, §6

SMILES	Protection against adrenaline-induced tachycardia (heart rate), potency and duration [1]	Heart rate (beats/minute) ([1]; anesthetized rats)	Inhibition of tachycardia ([1]; anesthetized rats)	Number of VPB ([1]; anesthetized rats)	Inhibition of VPB ([1]; anesthetized rats)	Anti-VPB activity at the end of the washout period [1]	Inhibition of formation of ventricular premature beats during drug administration [1]	Effect on PR segment of EKG (Class-IV activity), potency [2]	Effect on QT segment of EKG (Class-III properties), potency and duration [2]	PR interval [2]	QRS interval [2]	QT interval [2]	Anti-VPB activity relative to the other forms ([1]; racemate vs enantiomers, anesthetized rats)	Time at which anti-VPB activity is lost ([1]; infusion time 0 to 120 min)
CCN(CC)CCOc1c(I)cc(C(=O)c2c(CC(=O)OC(C)C(C)C)oc3ccccc23)cc1I (stereo not shown) [ATI-2055]	inhibits the tachycardia	–	–	–	–	–	–	–	–	–	–	–	–	–
CC[C@H](C)OC(=O)Cc1oc2ccccc2c1C(=O)c1cc(I)c(OCCN(CC)CC)c(I)c1 [Compound S-2042, (S)-sec-Butyl 2-[3-(3,5-diiodo-4-(2-diethylaminoethyloxy)benzoyl)]benzofurane-acetate]	more potent and longer acting then R-2042	lower	longer	lower	longer	still retained part of its activity	totally inhibited the formation of ventricular premature beats	much more potent than R-2042 and the racemate R,S-2042	the most potent and the longest acting	longer	longer	longer	–	–
CC[C@H](C)OC(=O)Cc1oc2ccccc2c1C(=O)c1cc(I)c(OCCN(CC)CC)c(I)c1 [R,S-2042]	the least potent and shortest acting	–	–	–	–	–	–	–	–	–	–	–	even less active than either the R- or the S-isomer	–
CC[C@@H](C)OC(=O)Cc1oc2ccccc2c1C(=O)c1cc(I)c(OCCN(CC)CC)c(I)c1 [Compound R-2042, (R)-sec-Butyl 2-[3-(3,5-diiodo-4-(2-diethylaminoethyloxy)benzoyl)]benzofuraneacetate]	–	lower	longer	lower	longer	completely inactive	–	–	–	shorter	no change	no change	–	–
CC[C@H](C)OC(=O)Cc1oc2ccccc2c1C(=O)c1cc(I)c(OCCN(CC)CC)c(I)c1 [ATI-2042]	very good protection against this tachyarrhythmia	–	–	–	–	–	–	–	–	–	–	–	–	–
CCN(CC)CCOc1c(I)cc(C(=O)c2c(CC(=O)O[C@@H](C)C(C)C)oc3ccccc23)cc1I [Compound S-2055, (S)-(3-Methyl)-2butyl2-[3-(3,5-diiodo-4-(2-diethylaminoethyloxy)benzoyl)]benzofuraneacetate]	–	lower	longer	lower	longer	completely inactive	–	–	–	shorter	longer	no change	–	~40 min
CCN(CC)CCOc1c(I)cc(C(=O)c2c(CC(=O)O[C@H](C)C(C)C)oc3ccccc23)cc1I [Compound R-2055, (R)-(3-Methyl)-2butyl2-[3-(3,5-diiodo-4-(2-diethylaminoethyloxy)benzoyl)]benzofuraneacetate]	longer-lasting effect than S-2055	lower	longer	lower	longer	still retained part of its activity	totally inhibited the formation of ventricular premature beats	–	–	shorter	longer	no change	–	–
